Results from paper PMC12610274, “Identification of Marrubiin as a Cathepsin C Inhibitor for Treating Rheumatoid Arthritis” (Molecules, 2025).

Columns and labels:
intracellular CTSC = molecular target: T1, intracellular CTSC (Homo sapiens, UniProt P53634); assay: CTSC cell-based assay using the U937 cell line; details: read-out: Cell-Based Enz (IC50: nM)
T1 construct: endogenous in cells; host or cells: U937
Experimental: Cell-based CTSC enzymatic activity assays were performed in 96-well clear-bottom black microplates. […] The detection substrate, H-Gly-Arg-AFC, was diluted to 100 µM in serum-free medium and stored for later use. U937 cells in the logarithmic growth phase were harvested, washed with PBS, and counted. A single-cell suspension was prepared at a density of 1.0 × 10^6 cells/mL using serum-free medium. 30 µL of cell suspension was seeded into each well of the 96-well plate. To the test wells, 10 µL of the compound working solution was added, while 10 µL of serum-free medium was added to the control wells. The plate was pre-incubated in a cell culture incubator at 37 °C for 3 h. Subsequently, 10 µL of H-Gly-Arg-AFC was added to initiate the enzymatic reaction, and the plate was further incubated at 37 °C for 1 h. Fluorescence measurements were performed using a multimode microplate reader at excitation/emission wavelengths of 400/505 nm. Each group of tests was independently repeated at least 3 times, and IC50 values were calculated using SPSS 10.0.

[1] = Cytotoxicity assay, U937 cell line; type: cell-based; details: human, U937 cells
Experimental: (§1) RAW264.7 cells and U937 cells in the logarithmic growth phase were counted and diluted, and the concentrations of the single-cell suspensions of the two types of cells were adjusted to 5 × 10^4 cells/mL and 3 × 10^4 cells/mL, respectively. After thorough mixing, the cells were seeded into a 96-well plate, with 100 μL of cell suspension added to each well. Prepare the working solution of test compounds using the corresponding medium as the solvent, with the concentration of working solution being 2 times the final test concentration (2.5 μM, 5 μM, 10 μM, 20 μM, and 40 μM). Twenty-four hours after cell seeding, the compound working solutions were added to the compound test wells, and the same volume of medium was added to the negative control wells, followed by continuous incubation for another 24 h. Only the wells with the same volume but without cells served as the blank control group. The CellTiter-Lumi™ luminescent cell viability assay kit (Beyotime Biotechnology, Shanghai, China, C0065XL) was used to detect cell viability according to the standard operating procedures. Each group of tests was independently repeated at least 3 times, and IC50 values were calculated using SPSS 10.0.

[2] = Cytotoxicity assay, RAW264.7 cell line; type: cell-based; details: mouse, RAW264.7 cells
Experimental: as §1

CTSC = CTSC (Homo sapiens, UniProt P53634); assay: Human recombinant CTSC isolated enzyme assay; type: biochemical; design: purchased R&D Systems; details: for IC50: human recombinant CTSC, cell-free, 12-point dose-response, read-out: CTSC Enz (IC50: nM)
Sequence of CTSC (P53634 25-134 limits assumed): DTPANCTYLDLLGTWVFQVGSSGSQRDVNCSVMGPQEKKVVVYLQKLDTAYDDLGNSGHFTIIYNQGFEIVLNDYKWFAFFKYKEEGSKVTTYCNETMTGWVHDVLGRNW
Sequence of CTSC (P53634 231-394 limits assumed): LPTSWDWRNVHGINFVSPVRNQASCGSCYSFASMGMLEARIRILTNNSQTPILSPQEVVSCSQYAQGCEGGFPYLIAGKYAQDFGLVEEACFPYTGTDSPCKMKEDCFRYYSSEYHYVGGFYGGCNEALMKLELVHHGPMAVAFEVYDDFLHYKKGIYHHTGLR
Sequence of CTSC (P53634 395-463 limits assumed): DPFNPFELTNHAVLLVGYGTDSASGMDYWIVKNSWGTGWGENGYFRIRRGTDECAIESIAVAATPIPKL
Experimental: Both recombinant CTSL and CTSC for in vitro cell-free-based enzymatic activity assay can be purchased from R&D Systems (Minneapolis, MN, USA), a biotechnology company. According to the standardized procedures and material ratios provided by R&D Systems, prepare the activation solution (25 mM MES + 5 mM DTT, pH 6.0) and the assay solution (25 mM MES + 50 mM NaCl + 5 mM DTT, pH 6.0) in advance for later use. Dilute the detection substrate H-Gly-Arg-AMC to a 200 µM solution with the assay solution for standby. Prepare the working solution of compounds to be tested using the assay solution, with the concentration of working solution being 10 times the final test concentration. Dilute CTSC and CTSL, respectively, with cold activation solution. Thoroughly mix the two activation solutions containing the proteins to achieve final concentrations of 300 nM for CTSL and 440 nM for CTSC. After co-incubation for 1 h, the activated CTSC treated with CTSL can be used for the enzymatic activity inhibition efficacy test of compounds. Dilute the activated CTSC to 4.4 nM with cold assay buffer. Incubate 4 μL of the activated CTSC with 1 μL of the compound working solution (test group) or 1 μL of blank assay solution (control group) at room temperature for 3 h. Then, add 5 μL of the detection substrate to achieve a final concentration of 100 μM. Mix 5 µL each of the assay solution and the substrate solution as the blank group. After 1 h, the absorbance of detection substrate was measured using a multifunctional microplate reader at excitation/emission wavelengths of 380 nm/460 nm. The inhibitory efficacy of molecules on enzyme activity was calculated based on the absorbance difference between test group and control group. […] Each group of tests mentioned above was independently repeated at least 3 times, and IC50 values were calculated using SPSS 10.0.

T1 sequence (P53634 25-463): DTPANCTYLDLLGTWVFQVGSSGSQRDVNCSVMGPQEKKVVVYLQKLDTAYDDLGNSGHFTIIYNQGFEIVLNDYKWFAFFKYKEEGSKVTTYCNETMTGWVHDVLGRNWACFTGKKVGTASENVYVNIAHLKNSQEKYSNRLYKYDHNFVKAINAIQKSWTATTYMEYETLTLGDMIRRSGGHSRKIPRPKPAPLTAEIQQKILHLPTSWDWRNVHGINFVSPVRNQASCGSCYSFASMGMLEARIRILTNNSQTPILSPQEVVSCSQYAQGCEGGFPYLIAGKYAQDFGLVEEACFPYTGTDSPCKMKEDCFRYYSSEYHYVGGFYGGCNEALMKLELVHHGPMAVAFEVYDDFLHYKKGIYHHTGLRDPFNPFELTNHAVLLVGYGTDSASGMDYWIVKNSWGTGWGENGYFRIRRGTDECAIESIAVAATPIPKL

enzymatic inhibitory activity against CTSC (CTSC; result in words) | Compound | IC50 (intracellular CTSC) [nM] | IC50 at 24 h [1] [µM] | IC50 at 24 h [2] [µM] | IC50 (CTSC) [nM]
– | CN1C2CC(O)CC1C1OC12 (stereo not drawn) [Scopine, scopine] | 337 ± 1.8 | > 10 | > 10 | 135 ± 4.7
– | N[C@H]1CONC1=O [L-Cycloserine, L-cycloserine] | > 5000 | > 10 | > 10 | 1101 ± 2
no enzymatic inhibitory activity at all | N[C@@H]1CON=C1O [D-cycloserine] | – | – | – | –
